Measurements: the NIST ThermoML archive (doi:10.1016/j.jct.2008.03.013)
Where “and” joins values, the source holds several entries; their conditions need not be identical. Equal values may be shown once.

Assays:
[1] = xn = mol fraction of the nth substance listed; details: 100 kPa, Liquid
[2] = refractive index (Na D-line) (dimensionless); xn = mol fraction of the nth substance listed; details: 298.15 K, 100 kPa, Liquid, Standard Abbe refractometry
[3] = refractive index (Na D-line) (dimensionless); details: 298.15 K; 101.33 kPa; Liquid; Standard Abbe refractometry
[4] = 100 kPa, Liquid

CCO [ethanol] + CCCCn1cc[n+](C)c1.COS(=O)(=O)[O-]
[1], x1 = 1
Details | mass density [kg/m3] | viscosity [mPa·s]
298.15 K | 785.46 | 1.082
313.15 K | 772 | 0.827
328.15 K | 758.55 | 0.641

Details | refractive index
[2], x1 = 1 | 1.36023

CCCCn1cc[n+](C)c1.COS(=O)(=O)[O-] [1-butyl-3-methylimidazolium methyl sulfate]
Details | refractive index
[3] | 1.47792

[4]
Details | mass density [kg/m3] | viscosity
298.15 K | 1213.43 | 182.3 mPa·s
313.15 K | 1203.48 | 84.8 mPa·s and 84.7 mPa·s
328.15 K | 1193.59 | 45.35 mPa·s

CCCCn1cc[n+](C)c1.COS(=O)(=O)[O-] [1-butyl-3-methylimidazolium methyl sulfate] + CCO
[1]
Details | mass density, 298.15 K [kg/m3] | mass density, 313.15 K [kg/m3] | mass density, 328.15 K [kg/m3] | viscosity, 298.15 K [mPa·s] | viscosity, 313.15 K [mPa·s] | viscosity, 328.15 K [mPa·s]
x2 = 0 | 1213.43 | 1203.48 | 1193.59 | 182.3 | 84.7 | 45.35
x2 = 0.0651 | 1205.77 | 1195.71 | 1185.73 | 156.7 | 74.9 | 40.76
x2 = 0.0922 | 1202.49 | 1192.4 | 1182.4 | 131.9 | 64.1 | 35.9
x2 = 0.2011 | 1187.41 | 1177.24 | 1167.12 | 88.6 | 46.28 | 27.16
x2 = 0.3091 | 1169.23 | 1158.88 | 1148.61 | 56.32 | 31.64 | 19.89
x2 = 0.402 | 1150.09 | 1139.56 | 1129.14 | 37.85 | 22.35 | 14.41
x2 = 0.491 | 1127.58 | 1117.04 | 1106.55 | 25.04 | 15.62 | 10.53
x2 = 0.5788 | 1100.78 | 1089.92 | 1079.14 | 16.22 | 10.58 | 7.263
x2 = 0.7142 | 1043.7 | 1032.43 | 1021.2 | 7.427 | 5.271 | 4.019
x2 = 0.807 | 989.09 | 977.5 | 965.92 | 4.349 | 3.197 | 2.503
x2 = 0.895 | 917.29 | 905.22 | 893.02 | 2.465 | 1.863 | 1.432
x2 = 0.9445 | 863.52 | 851.11 | 838.48 | 1.733 | 1.319 | 1.033

[2]
Details | refractive index
x2 = 0 | 1.47792
x2 = 0.0651 | 1.4759
x2 = 0.0922 | 1.475
x2 = 0.2011 | 1.4711
x2 = 0.3091 | 1.46633
x2 = 0.402 | 1.46114
x2 = 0.491 | 1.45512
x2 = 0.5788 | 1.4478
x2 = 0.7142 | 1.43243
x2 = 0.807 | 1.41714
x2 = 0.895 | 1.39734
x2 = 0.9445 | 1.38212

CCO [ethanol]
Details | refractive index
[3] | 1.36023

[4]
Details | mass density [kg/m3] | viscosity [mPa·s]
298.15 K | 785.46 | 1.082
313.15 K | 772 | 0.827
328.15 K | 758.55 | 0.641

CCCCn1cc[n+](C)c1.COS(=O)(=O)[O-] [1-butyl-3-methylimidazolium methyl sulfate] + O
[1]
Details | mass density, 298.15 K [kg/m3] | mass density, 313.15 K [kg/m3] | mass density, 328.15 K [kg/m3] | viscosity, 298.15 K [mPa·s] | viscosity, 313.15 K [mPa·s] | viscosity, 328.15 K [mPa·s]
x2 = 0 | 1213.43 | 1203.48 | 1193.59 | 182.3 | 84.8 | 45.35
x2 = 0.0325 | 1212.91 | 1202.96 | 1193.03 | 177 | 82.8 | 44.8
x2 = 0.1703 | 1211.05 | 1201.02 | 1190.99 | 137 | 68.9 | 41.09
x2 = 0.2989 | 1208.33 | 1198.3 | 1188.25 | 95.4 | 51.5 | 33.85
x2 = 0.4104 | 1204.62 | 1194.57 | 1184.54 | 65.5 | 35.77 | 23.52
x2 = 0.4774 | 1201.72 | 1191.55 | 1181.33 | 50.2 | 27.55 | 18.25
x2 = 0.5886 | 1194.68 | 1184.43 | 1174.25 | 31.93 | 18.4 | 11.98
x2 = 0.6859 | 1185.23 | 1174.8 | 1164.26 | 20.28 | 12.03 | 7.862
x2 = 0.7856 | 1168.21 | 1157.61 | 1146.83 | 11.42 | 7.027 | 4.738
x2 = 0.8899 | 1130.52 | 1120.17 | 1109.5 | 5.071 | 3.296 | 2.306
x2 = 0.9466 | 1085.81 | 1076.83 | 1067.17 | 2.597 | 1.763 | 1.281

[2]
Details | refractive index
x2 = 0 | 1.47792
x2 = 0.0325 | 1.47746
x2 = 0.1703 | 1.47584
x2 = 0.2989 | 1.47341
x2 = 0.4104 | 1.47032
x2 = 0.4774 | 1.46814
x2 = 0.5886 | 1.463
x2 = 0.6859 | 1.45603
x2 = 0.7856 | 1.44395
x2 = 0.8899 | 1.41842
x2 = 0.9466 | 1.38937
